The values that follow are results of earlier work, collected in patent US20250270235A1, “COMPLEX OF GADOLINIUM AND A CHELATING LIGAND DERIVED OF A DIASTEREOISOMERICALLY ENRICHED PCTA AND SYNTHESIS METHOD” (GUERBET, priority 2019, published 2025).

For data set [1] the following is noted: comparative, same conditions (pH 1.2, 37° C.); cited from earlier work.
The conditions of data set [2]: as described in WO 2014/174120; comparative; cited from earlier work.

The structures appear in SMILES notation.

As for `O=C([O-])CN1CCN(CC(=O)[O-])CCN([C@H](CO)[C@H](O)CO)CCN(CC(=O)[O-])CC1.[Gd+3]` (racemic) [gadobutrol], in data set [1], the kinetic inertia was 18 h.
As for `O=C([O-])CN1CCN(CC(=O)[O-])CCN(CC(=O)O)CCN(CC(=O)[O-])CC1.[Gd+3]` [DOTA-Gd, gadolinium complex of 1,4,7,10-tetraazacyclododecane-N,N′,N″,N′″-tetraacetic acid], the “log (Ktherm), stability constant” value in data set [2] is given as 25.6.
Consider `CNC(=O)CN(CCN(CCN(CC(=O)[O-])CC(=O)NC)CC(=O)[O-])CC(=O)[O-].[Gd+3]` [gadodiamide], for which, in data set [1], the “kinetic inertia (dissociation, in words)” value was “dissociate instantaneously”.
Regarding `O=C([O-])CN(CCN(CC(=O)[O-])CC(=O)[O-])CCN(CC(=O)[O-])CC(=O)[O-].[Gd+3]` [gadopentetate], in data set [1], the “kinetic inertia (dissociation, in words)” value was “dissociate instantaneously”.
With `CNC[C@H](O)[C@@H](O)[C@H](O)[C@H](O)CO.O=C([O-])CN1CCN(CC(=O)[O-])CCN(CC(=O)O)CCN(CC(=O)[O-])CC1.[Gd+3]` [gadoterate], in data set [1], the kinetic inertia is 96 h.
